Source: US12435095B2, “Substituted morpholines as ATR kinase inhibitors” (Shanghai Annova Biotechnology Co., Ltd., priority 2021, dated 2025)
Read-outs that look alike come from different tables or passages of the source.

Test system: human colon cancer LoVo cells
Assay: Cell proliferation inhibition assay (CellTiter-Glo)
Type: cell-based
Details: for IC50 / Emax: Homo sapiens; for IC50: read-out: LoVo IC50; for Emax: read-out: Max Inhibition
Text: Experimental method: A CellTiter-Glo cell viability assay kit was used to test the inhibitory effect of the compounds on the in vitro proliferation of human colon cancer LoVo cells.
Experimental materials: LoVo cells (ATCC, Cat. No. CCL-29); F-12K medium (Invitrogen, Cat. No. 21127-022); fetal bovine serum (Biological Industries, Cat. No. 04-002-1A); GlutaMAX (Gibco, Cat. No. 35050-061); 0.25% trypsin-EDTA (Invitrogen, Cat. No. 25200-072); CellTiter-Glo kit (Promega, Cat. No. G7558).
Experimental procedure: (1) F-12K medium, fetal bovine serum and GlutaMAX were formulated into a complete medium for culturing LoVo cells; (2) well-grown LoVo cells were taken, digested with trypsin and transferred to a centrifuge tube, and centrifuged; the supernatant was discarded, and cells were resuspended by adding a fresh medium and counted by a Vi-CELL XR cell counter; the density of the cell suspension was adjusted to 25,000 to 30,000 cells/mL, and the cell suspension was added at 100 μL/well in a 96-well cell culture plate, while a blank control group was set up with no cells added, and the cell culture plate was incubated in a carbon dioxide incubator overnight; (3) a DMSO solution of the compound to be tested was dispensed into the above 96-well cell culture plate using an HP D300 ultra-micro sampler, with 0.5 μL of the solution per well and 10 concentrations for each compound (3× dilution), while a DMSO control group with no compound added was set up, and the plate was continued to be incubated in a carbon dioxide incubator for 96 hours; (4) the cell culture plate was taken out and equilibrated to room temperature, with 100 μL of a CellTiter-Glo reagent added to each well, and then the plate was kept away from light, shaken for 10 minutes and then incubated for 10 minutes; (5) the cell culture plate was put into EnSpire for plate reading, and the luminescence value RLU was recorded.
Data processing: (1) The inhibition rate was calculated from the luminescence values: “RLUDMSO” is the luminescence value of the DMSO control group without compound, “RLUblank” is the luminescence value of the blank control group without cells, and “RLUcompound” is the luminescence value of the compound test group, and the inhibition rate=[1−(RLUcompound−RLUblank)/(RLUDMSO−RLUblank)]×100%; (2) with curve fitting using the Excel add-on XLFit, the IC50 value was calculated.

[1] = LoVo cells, 96 hours, CellTiter-Glo

Structure (SMILES) | IC50 [1] [µM] | Max Inhibition [1] [%] | Emax [1] [%] | IC50 (LoVo, 96 h) [µM] | Emax (LoVo, 96 h) [%]
C[C@@H]1COCCN1c1cc(-c2cccc3[nH]ccc23)nc2c1ccn2S(C)(=O)=O [Compound 2, (R)-4-(6-(1H-indol-4-yl)-1-(methylsulfonyl)-1H-pyrrolo[2,3-b]pyridin-4-yl)-3-methylmorpholine] | 0.5 | 94 |  |  | 
C[C@@H]1COCCN1c1cc(-c2ccnc3[nH]ccc23)nc2c1ccn2CS(C)(=O)=O [Compound 4′, reference compound] | 2.34 |  |  |  | 
CC(n1ccc2c(N3CCOC[C@H]3C)cc(-c3ccnc4[nH]ccc34)nc21)S(C)(=O)=O (stereo partly shown) [Compound 5′, reference compound] | 1.88 |  |  |  | 
C[C@@H]1COCCN1c1cc(-c2ccnc3[nH]ccc23)nc2c1ccn2S(=O)(=O)N(C)C [Compound 16, (R)—N,N-dimethyl-4′-(3-methylmorpholinyl)-1H,1′H-[4,6′-dipyrrolo[2,3-b]pyridine]-1′-sulfamide] | 1.82 |  | 93 |  | 
C[C@@H]1COCCN1c1nc(-c2cc(F)cc3[nH]ccc23)nc2c1ccn2S(C)(=O)=O [Compound 20, (R)-4-(2-(6-fluoro-1H-indol-4-yl)-7-(methylsulfonyl)-7H-pyrrolo[2,3-d]pyrimidin-4-yl)-3-methylmorpholine] | 0.49 | 91 |  |  | 
C[C@@H]1COCCN1c1nc(-c2ccnc3[nH]ccc23)nc2c1ccn2S(=O)(=O)CCO [Compound 21, (R)-2-((4-(3-methylmorpholinyl)-2-(1H-pyrrolo[2,3-b]pyridin-4-yl)-7H-pyrrolo[2,3-d]pyrimidin-7-yl)sulfonyl)ethanol] | 0.71 |  | 92 |  | 
C[C@@H]1COCCN1c1nc(-c2ccnc3[nH]ccc23)nc2c1ncn2S(C)(=O)=O [Compound 22, (R)-3-methyl-4-(9-(methylsulfonyl)-2-(1H-pyrrolo[2,3-b]pyridin-4-yl)-9H-purin-6-yl)morpholine] | 1.04 | 93 |  |  | 
C[C@@H]1COCCN1c1nc(-c2ccnc3[nH]ccc23)nc2c1cnn2S(C)(=O)=O [Compound 23, (R)-3-methyl-4-(1-(methylsulfonyl)-6-(1H-pyrrolo[2,3-b]pyridin-4-yl)-1H-pyrazolo[3,4-d]pyrimidin-4-yl)morpholine] |  | 92 |  |  | 
C[C@@H]1COCCN1c1cc(-c2ccnc3[nH]ccc23)nc2c1ncn2S(C)(=O)=O [Compound 24, (R)-3-methyl-4-(3-(methylsulfonyl)-5-(1H-pyrrolo[2,3-b]pyridin-4-yl)-3H-imidazo[4,5-b]pyridin-7-yl)morpholine] | 1.02 | 92 |  |  | 
C[C@@H]1COCCN1c1nc(-c2cncc3[nH]ccc23)cc2c1ncn2S(C)(=O)=O [Compound 25, (R)-3-methyl-4-(1-(methylsulfonyl)-6-(1H-pyrrolo[2,3-c]pyridin-4-yl)-1H-imidazo[4,5-c]pyridin-4-yl)morpholine] | 0.24 | 89 |  |  | 
C[C@@H]1COCCN1c1nc(-c2ccnc3[nH]ccc23)cc2c1ccn2S(C)(=O)=O [Compound 26, (R)-3-methyl-4-(1-(methylsulfonyl)-6-(1H-pyrrolo[2,3-b]pyridin-4-yl)-1H-pyrrolo[3,2-c]pyridin-4-yl)morpholine] | 0.74 | 92 |  |  | 
C[C@@H]1COCCN1c1nc(-c2nc3ccccc3[nH]2)nc2c1ccn2S(C)(=O)=O [Compound 27, (R)-4-(2-(1H-benzo[d]imidazol-2-yl)-7-(methylsulfonyl)-7H-pyrrolo[2,3-d]pyrimidin-4-yl)-3-methylmorpholine] | 0.62 | 94 |  |  | 
CNc1nc2ccccc2n1-c1nc(N2CCOC[C@H]2C)c2ccn(S(C)(=O)=O)c2n1 [Compound 28, (R)—N-methyl-1-(4-(3-methylmorpholinyl)-7-(methylsulfonyl)-7H-pyrrolo[2,3-d]pyrimidin-2-yl)-1H-benzo[d]imidazol-2-amine] | 0.1 |  | 92 |  | 
Cc1cc(-c2nc(N3CCOC[C@H]3C)c3ccn(S(C)(=O)=O)c3n2)c2cc[nH]c2c1 [Compound 29, (R)-3-methyl-4-(2-(6-methyl-1H-indol-4-yl)-7-(methylsulfonyl)-7H-pyrrolo[2,3-d]pyrimidin-4-yl)morpholine] | 0.38 | 94 |  |  | 
C[C@@H]1COCCN1c1nc(-c2cc(C#N)cc3[nH]ccc23)nc2c1ccn2S(C)(=O)=O [Compound 30, (R)-4-(4-(3-methylmorpholinyl)-7-(methylsulfonyl)-7H-pyrrolo[2,3-d]pyrimidin-2-yl)-1H-indol-6-carbonitrile] | 1.06 |  | 93 |  | 
COc1cc(-c2nc(N3CCOC[C@H]3C)c3ccn(S(C)(=O)=O)c3n2)c2cc[nH]c2c1 [Compound 32, (R)-4-(2-(6-methoxy-1H-indol-4-yl)-7-(methylsulfonyl)-7H-pyrrolo[2,3-d]pyrimidin-4-yl)-3-methylmorpholine] | 0.34 | 95 |  |  | 
C[C@@H]1COCCN1c1nc(-c2ccnc3[nH]ccc23)nc2c1ccn2S(=O)(=O)N(C)C [Compound 34, (R)—N,N-dimethyl-4-(3-methylmorpholinyl)-2-(1H-pyrrolo[2,3-b]pyridin-4-yl)-7H-pyrrolo[2,3-d]pyrimidine-7-sulfamide] |  |  |  | 0.29 | 93

Further molecules by falling IC50 [1], results first:

IC50 [1] [µM] | Structure (SMILES) | Max Inhibition [1] [%] | Emax [1] [%] | IC50 (LoVo, 96 h) [µM] | Emax (LoVo, 96 h) [%]
2.13 | CC(C)S(=O)(=O)n1ccc2c(N3CCOC[C@H]3C)cc(-c3ccnc4[nH]ccc34)nc21 [Compound 14, (R)-4-(1′-(isopropylsulfonyl)-1H,1′H-[4,6′-dipyrrolo[2,3-b]pyridin]-4′-yl)-3-methylmorpholine] |  | 93 |  | 
1.27 | C[C@@H]1COCCN1c1cc(-c2ccnc3[nH]ccc23)nc2c1ccn2S(=O)(=O)C1CC1 [Compound 15, (R)-4-(1′-(cyclopropylsulfonyl)-1H,1′H-[4,6′-dipyrrolo[2,3-b]pyridin]-4′-yl)-3-methylmorpholine] |  | 94 |  | 
0.57 | C[C@@H]1COCCN1c1nc(-c2cc(Cl)cc3[nH]ccc23)nc2c1ccn2S(C)(=O)=O [Compound 31, (R)-4-(2-(6-chloro-1H-indol-4-yl)-7-(methylsulfonyl)-7H-pyrrolo[2,3-d]pyrimidin-4-yl)-3-methylmorpholine] | 93 |  |  | 
0.43 | C[C@@H]1COCCN1c1cc(-c2cncc3[nH]ccc23)nc2c1ccn2S(C)(=O)=O [Compound 3, (R)-3-methyl-4-(1-(methylsulfonyl)-6-(1H-pyrrolo[2,3-c]pyridin-4-yl)-1H-pyrrolo[2,3-b]pyridin-4-yl)morpholine] | 93 |  |  | 
0.42 | C[C@@H]1COCCN1c1cc(-c2cc(F)cc3[nH]ccc23)nc2c1ccn2S(C)(=O)=O [Compound 7, (R)-4-(6-(6-fluoro-1H-indol-4-yl)-1-(methylsulfonyl)-1H-pyrrolo[2,3-b]pyridin-4-yl)-3-methylmorpholine] | 95 |  |  | 
0.29 | CCS(=O)(=O)n1ccc2c(N3CCOC[C@H]3C)nc(-c3ccnc4[nH]ccc34)nc21 [Compound 33, (R)-4-(7-(ethylsulfonyl)-2-(1H-pyrrolo[2,3-b]pyridin-4-yl)-7H-pyrrolo[2,3-d]pyrimidin-4-yl)-3-methylmorpholine] | 92 |  |  | 
0.25 | C[C@@H]1COCCN1c1nc(-c2cccc3[nH]ccc23)nc2c1ccn2S(C)(=O)=O [Compound 18, (R)-4-(2-(1H-indol-4-yl)-7-(methylsulfonyl)-7H-pyrrolo[2,3-d]pyrimidin-4-yl)-3-methylmorpholine] | 92 |  |  | 
0.17 | C[C@@H]1COCCN1c1nc(-c2ccnc3[nH]ccc23)nc2c1ccn2S(C)(=O)=O [Compound 17, (R)-3-methyl-4-(7-(methylsulfonyl)-2-(1H-pyrrolo[2,3-b]pyridin-4-yl)-7H-pyrrolo[2,3-d]pyrimidin-4-yl)morpholine] | 93 |  |  | 
0.07 | C[C@@H]1COCCN1c1nc(-c2cncc3[nH]ccc23)nc2c1ccn2S(C)(=O)=O [Compound 19, (R)-3-methyl-4-(7-(methylsulfonyl)-2-(1H-pyrrolo[2,3-c]pyridin-4-yl)-7H-pyrrolo[2,3-d]pyrimidin-4-yl)morpholine] | 90 |  |  | 
